Measurements taken from the supplement of paper PMC11208160.

Test: recombinant UMI read abundance after kanamycin selection (control-corrected) (log10(CPM+1)); higher = more efficient recombination; extreme values may be limits of the assay; sequences stand for … in AGTGCAGAGAAAATCGGCCAGTTTTCTCTGCCTGCAGTCCGCATGCCGTGGGACCCCTTGGGTTCTAACCTGTTGCCTAGATTTATGCAGCGGACTGCCTTTCTCCCAAAGTGATAAACCGG…AGGTTGGTTTCACT; site = the 11-nt donor
How it was run: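 Under IPTG (0.07 mM) plus kanamycin, or without selection, Escherichia coli carrying a UMI-tagged donor and donor-binding-loop pair library and a target plasmid for the IS621 bridge recombinase were plated in two replicates. Recombinant UMIs were PCR-amplified across the donor–target junction and sequenced. Counts were converted to CPM, averaged over replicates, scaled by control-derived factors and reported as log10(CPM+1).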
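Further: IS621 bridge recombinase in Escherichia coli cells against a fixed T5 target plasmid.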

| Sequence | recombinant UMI read abundance (log10) |
| --- | --- |
| CCGTTTACATGGACCGGTTTTCCCGGTAATCCGTATTTGCT (site CCGTCTACTAG) | 0 |
| CCGTTTACATGGACCGGTTTTCCCGGTAATCCGTATTTGCT (site CCGTGTACTAG) | 0 |
| CCGTTTACATGGACCGGTTTTCCCGGTAATCCGTATTTGCT (site CCGTTAACTAG) | 0 |
| CCGTTTACATGGACCGGTTTTCCCGGTAATCCGTATTTGCT (site CCGTTCACTAG) | 0.00422 |
| CCGTTTACATGGACCGGTTTTCCCGGTAATCCGTATTTGCT (site CCGTTGACTAG) | 0 |
| CCGTTTACATGGACCGGTTTTCCCGGTAATCCGTATTTGCT (site CCGTTTACTAA) | 0 |
| CCGTTTACATGGACCGGTTTTCCCGGTAATCCGTATTTGCT (site CCGTTTACTAC) | 0 |
| CCGTTTACATGGACCGGTTTTCCCGGTAATCCGTATTTGCT (site CCGTTTACTAG) | 0 |
| CCGTTTACATGGACCGGTTTTCCCGGTAATCCGTATTTGCT (site CCGTTTACTAT) | 0 |
| CCGTTTACATGGACCGGTTTTCCCGGTAATCCGTATTTGCT (site CCGTTTACTCG) | 0 |
| CCGTTTACATGGACCGGTTTTCCCGGTAATCCGTATTTGCT (site CCGTTTACTGG) | 0 |
| CCGTTTACATGGACCGGTTTTCCCGGTAATCCGTATTTGCT (site CCGTTTACTTG) | 0 |
| CCGTTTACATGGACCGGTTTTCCCGGTAATCCGTATTTGCT (site CCGTTTCCTAG) | 0 |
| CCGTTTACATGGACCGGTTTTCCCGGTAATCCGTATTTGCT (site CCGTTTGCTAG) | 0.00881 |
| CCGTTTACATGGACCGGTTTTCCCGGTAATCCGTATTTGCT (site CCGTTTTCTAG) | 0 |
| CCGTTTACATGGACCGGTTTTCCCGGTAATCCGTATTTGCT (site CCTTTTACTAG) | 0 |
| CCGTTTACATGGACCGGTTTTCCCGGTAATCCGTATTTGCT (site CGGTTTACTAG) | 0 |
| CCGTTTACATGGACCGGTTTTCCCGGTAATCCGTATTTGCT (site CTGTTTACTAG) | 0 |
| CCGTTTACATGGACCGGTTTTCCCGGTAATCCGTATTTGCT (site GCGTTTACTAG) | 0 |

| Sequence | recombinant UMI read abundance (log10) |
| --- | --- |
| CCGTTTACATGGACCGGTTTTCCCGGTAATCCGTATTTGCT (site TCGTTTACTAG) | 0 |
| CCGTTTCCATGGACCGGTTTTCCCGGTAATCCGTATTTGCT (site CCGTTTACTAG) | 0 |
| CCGTTTCCATGGACCGGTTTTCCCGGTAATCCGTATTTGCT (site CCGTTTCCTAG) | 0 |
| CCGTTTCCATGGACCGGTTTTCCCGGTAATCCGTATTTGCT (site CCGTTTGCTAG) | 0 |
| CCGTTTCCATGGACCGGTTTTCCCGGTAATCCGTATTTGCT (site CCGTTTTCTAG) | 0 |
| CCTAAAACATGGACCGGTTTTCCCGGTAATCCGTATTTGAT (site CCTAAAACTAT) | 0 |
| CCTAAAACATGGACCGGTTTTCCCGGTAATCCGTATTTGAT (site CCTAAACCTAT) | 0.00551 |
| CCTAAAACATGGACCGGTTTTCCCGGTAATCCGTATTTGAT (site CCTAAAGCTAT) | 0.00636 |
| CCTAAAACATGGACCGGTTTTCCCGGTAATCCGTATTTGAT (site CCTAAATCTAT) | 0 |
| CCTAAAACATGGACCGGTTTTCCCGGTAATCCGTATTTGGC (site CCTAAAACTGC) | 0 |
| CCTAAAACATGGACCGGTTTTCCCGGTAATCCGTATTTGGC (site CCTAACACTGC) | 0 |
| CCTAAAACATGGACCGGTTTTCCCGGTAATCCGTATTTGGC (site CCTAAGACTGC) | 0 |
| CCTAAAACATGGACCGGTTTTCCCGGTAATCCGTATTTGGC (site CCTAATACTGC) | 0 |
| CCTAAAGCATGGACCGGTTTTCCCGGTAATCCGTATTTGGT (site CCTAAAGCTAA) | 0.00229 |
| CCTAAAGCATGGACCGGTTTTCCCGGTAATCCGTATTTGGT (site CCTAAAGCTAC) | 0 |
| CCTAAAGCATGGACCGGTTTTCCCGGTAATCCGTATTTGGT (site CCTAAAGCTAG) | 0 |
| CCTAAAGCATGGACCGGTTTTCCCGGTAATCCGTATTTGGT (site CCTAAAGCTAT) | 0 |
| CCTAATACATGGACCGGTTTTCCCGGTAATCCGTATTTGAC (site CCTAATACTGA) | 0 |
| CCTAATACATGGACCGGTTTTCCCGGTAATCCGTATTTGAC (site CCTAATACTGC) | 0 |
